In ChEMBL document CHEMBL1134342, “Current and novel approaches to the drug treatment of schizophrenia” (J Med Chem, 2001):
Each block holds one compound with its values, some of them ahead of it. Activity calls are given as the source filed them. No cut-off for these calls is given here.

Experiments:
[1] = target: T1, 5-hydroxytryptamine receptor 1A (Homo sapiens, UniProt P08908); experiment: Binding affinity towards human 5-hydroxytryptamine 1 receptor
T1 sequence (P08908 whole entry): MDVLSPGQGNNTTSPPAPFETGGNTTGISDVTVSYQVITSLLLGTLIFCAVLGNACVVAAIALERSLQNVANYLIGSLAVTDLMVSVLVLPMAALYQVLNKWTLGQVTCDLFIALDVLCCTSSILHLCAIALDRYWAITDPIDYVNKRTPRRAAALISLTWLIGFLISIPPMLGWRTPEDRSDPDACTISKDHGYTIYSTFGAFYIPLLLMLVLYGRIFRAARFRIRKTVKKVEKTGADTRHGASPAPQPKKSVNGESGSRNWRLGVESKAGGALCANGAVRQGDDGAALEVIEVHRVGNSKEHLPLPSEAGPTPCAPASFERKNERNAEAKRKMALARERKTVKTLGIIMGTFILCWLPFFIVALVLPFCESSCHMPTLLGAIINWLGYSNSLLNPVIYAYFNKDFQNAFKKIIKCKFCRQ

[2] = target: T2, Muscarinic acetylcholine receptor M1 (Homo sapiens, UniProt P11229)
T2 sequence (P11229 whole entry): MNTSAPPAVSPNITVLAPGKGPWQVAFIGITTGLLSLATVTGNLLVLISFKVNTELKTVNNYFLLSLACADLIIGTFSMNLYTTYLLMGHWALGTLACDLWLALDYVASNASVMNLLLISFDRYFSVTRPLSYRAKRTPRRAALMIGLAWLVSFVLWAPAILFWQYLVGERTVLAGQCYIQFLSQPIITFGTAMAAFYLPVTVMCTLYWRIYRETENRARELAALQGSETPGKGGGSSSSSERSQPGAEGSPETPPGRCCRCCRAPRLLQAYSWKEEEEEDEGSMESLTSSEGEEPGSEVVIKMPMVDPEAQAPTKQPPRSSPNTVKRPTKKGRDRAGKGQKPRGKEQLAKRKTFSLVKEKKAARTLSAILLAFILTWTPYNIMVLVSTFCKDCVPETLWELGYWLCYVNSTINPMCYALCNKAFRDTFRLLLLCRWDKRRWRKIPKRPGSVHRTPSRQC
Description: Binding affinity towards human M1 receptor.

[3] = target: T3, Adrenergic receptor alpha-1 (Homo sapiens, UniProt P35348+P25100+P35368)
T3 sequence (P35348 whole entry): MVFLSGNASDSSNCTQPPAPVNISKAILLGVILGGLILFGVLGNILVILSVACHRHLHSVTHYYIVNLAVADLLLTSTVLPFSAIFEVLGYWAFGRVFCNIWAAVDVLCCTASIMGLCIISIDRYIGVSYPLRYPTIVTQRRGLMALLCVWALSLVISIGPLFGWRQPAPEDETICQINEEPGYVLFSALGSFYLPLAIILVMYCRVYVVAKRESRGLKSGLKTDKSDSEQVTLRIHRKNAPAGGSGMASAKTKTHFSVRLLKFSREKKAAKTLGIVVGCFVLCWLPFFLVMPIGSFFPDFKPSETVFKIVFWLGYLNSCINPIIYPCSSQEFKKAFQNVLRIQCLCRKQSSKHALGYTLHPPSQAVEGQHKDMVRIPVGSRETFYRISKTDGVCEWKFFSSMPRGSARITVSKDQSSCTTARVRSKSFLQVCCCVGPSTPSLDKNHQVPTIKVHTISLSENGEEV
T3 sequence (P25100 whole entry): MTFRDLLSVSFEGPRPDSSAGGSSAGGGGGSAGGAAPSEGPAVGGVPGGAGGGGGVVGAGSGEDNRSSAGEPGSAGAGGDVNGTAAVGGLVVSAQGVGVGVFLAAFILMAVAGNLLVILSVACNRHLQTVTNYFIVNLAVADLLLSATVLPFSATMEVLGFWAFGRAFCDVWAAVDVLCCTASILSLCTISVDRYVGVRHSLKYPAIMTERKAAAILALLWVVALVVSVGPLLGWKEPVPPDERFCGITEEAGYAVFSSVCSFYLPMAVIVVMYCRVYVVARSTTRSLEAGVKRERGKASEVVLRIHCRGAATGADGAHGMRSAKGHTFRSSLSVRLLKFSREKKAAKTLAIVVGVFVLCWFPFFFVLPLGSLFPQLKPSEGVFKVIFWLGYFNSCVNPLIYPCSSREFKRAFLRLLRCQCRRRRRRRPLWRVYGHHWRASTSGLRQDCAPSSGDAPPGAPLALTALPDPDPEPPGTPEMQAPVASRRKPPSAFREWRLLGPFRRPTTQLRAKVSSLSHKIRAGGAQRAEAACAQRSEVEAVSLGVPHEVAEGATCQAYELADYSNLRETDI
T3 sequence (P35368 whole entry): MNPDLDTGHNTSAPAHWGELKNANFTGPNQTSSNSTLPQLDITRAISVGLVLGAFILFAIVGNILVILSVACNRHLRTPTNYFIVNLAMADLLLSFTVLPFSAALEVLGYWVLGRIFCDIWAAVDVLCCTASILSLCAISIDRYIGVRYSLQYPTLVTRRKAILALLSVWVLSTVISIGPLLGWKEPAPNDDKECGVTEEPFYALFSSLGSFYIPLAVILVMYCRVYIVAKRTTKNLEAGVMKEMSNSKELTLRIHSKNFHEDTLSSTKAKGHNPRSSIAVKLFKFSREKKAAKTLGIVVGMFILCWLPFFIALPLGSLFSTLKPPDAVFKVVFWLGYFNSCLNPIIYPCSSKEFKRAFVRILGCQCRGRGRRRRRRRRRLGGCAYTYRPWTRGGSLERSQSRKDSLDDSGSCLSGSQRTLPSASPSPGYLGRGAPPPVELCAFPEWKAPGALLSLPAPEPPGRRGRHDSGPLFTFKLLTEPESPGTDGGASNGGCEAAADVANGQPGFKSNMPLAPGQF
Description: Binding affinity towards human alpha-1 adrenergic receptor

[4] = target: 5-hydroxytryptamine receptor 2A (Homo sapiens, UniProt P28223)
Description: Binding affinity for human 5-hydroxytryptamine 2A receptor

[5] = Half life period was determined in rat; format: ADME, organism-based; conditions: in vivo
[6] = Bioavailability in rat; format: ADME, organism-based; conditions: in vivo
[7] = target: Voltage-gated L-type calcium channel (Homo sapiens, UniProt O60840+Q01668+Q13698+Q13936); experiment: Percent inhibition of binding to calcium channel at 10 uM; format: protein assay
[8] = Percent inhibition of binding affinity for sodium channel at 10 uM
D(4) dopamine receptor = target: T4, D(4) dopamine receptor (Homo sapiens, UniProt P21917)
T4 sequence (P21917 whole entry): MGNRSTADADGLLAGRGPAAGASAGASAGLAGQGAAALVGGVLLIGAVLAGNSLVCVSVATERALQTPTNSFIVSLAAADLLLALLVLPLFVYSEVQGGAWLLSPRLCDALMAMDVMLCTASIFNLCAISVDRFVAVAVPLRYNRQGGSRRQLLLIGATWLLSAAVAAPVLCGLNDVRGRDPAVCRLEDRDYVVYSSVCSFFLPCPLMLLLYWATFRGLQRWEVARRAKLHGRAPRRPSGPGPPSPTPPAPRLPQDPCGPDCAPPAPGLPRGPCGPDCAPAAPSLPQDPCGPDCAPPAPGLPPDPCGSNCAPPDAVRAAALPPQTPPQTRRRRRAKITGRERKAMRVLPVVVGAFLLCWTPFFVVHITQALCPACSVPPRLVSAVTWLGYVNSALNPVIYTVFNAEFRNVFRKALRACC

[9] = Cmax was determined in rat after oral administration of 3 mg/kg; format: ADME, organism-based; set-up: dose 3 mg/kg, route oral; conditions: in vivo
[10] = Plasma half life period was determined in human; format: ADME, organism-based
[11] = Oral bioavailability was determined in rats and rhesus monkey; format: ADME, organism-based; conditions: eutheria, in vivo
[12] = Brain/Plasma AUC ratio was determined after oral administration of 50 mg/kg; format: ADME, organism-based; set-up: dose 50 mg/kg, route oral; conditions: brain and plasma
Mus musculus [13] = experiment: Antagonizing amphetamine induced hyperlocomotion in mice was determined after (ip) administration; format: functional
Mus musculus [14] = experiment: Antagonizing amphetamine induced hyperlocomotion in mice was determined after […] administration; format: functional
Rodentia sp. [15] = experiment: Extrapyramidal liability by induction of catalepsy after a (sc) administration 80 umol/kg; not effective; format: functional, organism-based
Rodentia sp. [16] = experiment: Antipsychotic potential by inhibition of conditioned avoidance responding after a (sc) administration 40 umol/kg; not effective; format: functional, organism-based
Rodentia sp. [17] = experiment: Induction of catalepsy was determined after a (sc) administration; format: functional
Rodentia sp. [18] = experiment: Motor impairment by impaired rotarod performance after a (sc) administration; format: functional
Rodentia sp. [19] = experiment: Motor impairment by impaired spontaneous locomotor activity after a (sc) administration; format: functional
Rodentia sp. [20] = experiment: Antipsychotic potential by blockade of apomorphine or amphetamine hyperactivity after a (sc) administration; format: functional
[21] = Binding affinity at sodium channels
Rodentia sp. [22] = experiment: Antipsychotic potential by blockade of apomorphine disruption in PPI after (sc) administration; format: functional; conditions: read-out: MED
Rodentia sp. [23] = tested on: Rodentia sp.
Rodentia sp. [24] = tested on: Rodentia sp.; remark: listed apart in the source
Rodentia sp. [25] = tested on: Rodentia sp.; remark: listed apart in the source
Rodentia sp. [26] = tested on: Rodentia sp.; remark: listed apart in the source
Rodentia sp. [27] = tested on: Rodentia sp.; remark: listed apart in the source
Rattus norvegicus [28] = experiment: Block of mescaline induced head twitch in rat at 1 hour after peroral administration of compound; format: functional; conditions: po
Rattus norvegicus [29] = experiment: Block of mescaline induced head twitch in rat at 6 hour after peroral administration of compound; format: functional; conditions: po
Rodentia sp. [30] = experiment: Extrapyramidal liability by induction of catalepsy after oral administration of […] umol/kg; not effective; format: functional, organism-based
Rodentia sp. [31] = experiment: Motor impairment by impaired spontaneous locomotor activity after oral administration of […] umol/kg; not effective; format: functional, organism-based
Rodentia sp. [32] = experiment: EPS liability measured by blockade of stereotypy after oral administration of […] umol/kg; not effective; format: functional, organism-based
Rodentia sp. [33] = experiment: Antipsychotic potential by blockade of apomorphine or amphetamine hyperactivity after oral administration; format: functional

Sequence of 5-hydroxytryptamine receptor 2A (P28223 whole entry): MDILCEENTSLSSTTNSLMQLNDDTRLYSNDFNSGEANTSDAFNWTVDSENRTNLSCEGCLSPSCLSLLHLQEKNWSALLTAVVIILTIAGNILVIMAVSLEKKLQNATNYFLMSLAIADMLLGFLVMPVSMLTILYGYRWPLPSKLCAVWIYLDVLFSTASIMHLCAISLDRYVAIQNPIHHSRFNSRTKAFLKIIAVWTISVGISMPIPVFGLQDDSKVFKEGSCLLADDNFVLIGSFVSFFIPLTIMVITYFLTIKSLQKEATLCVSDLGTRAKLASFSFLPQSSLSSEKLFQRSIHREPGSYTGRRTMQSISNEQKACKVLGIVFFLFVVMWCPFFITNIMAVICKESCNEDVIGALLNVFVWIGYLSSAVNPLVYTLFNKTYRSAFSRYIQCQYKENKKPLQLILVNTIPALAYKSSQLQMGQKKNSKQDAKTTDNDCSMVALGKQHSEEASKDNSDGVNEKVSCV

SMILES: O=C(c1ccccc1)C1CCN(CCc2ccccc2)CC1
Ki [4]: 9.6 nM

SMILES: O=c1ccc2ccc(NCCNc3ccccc3)cc2o1
Ki (D(4) dopamine receptor): 5.8 nM

SMILES: c1ccc(N2CCN(Cc3c[nH]c4ncccc34)CC2)cc1
Cmax [9]: 18 ng/mL
Ki (D(4) dopamine receptor): 1.9 nM

SMILES: c1ccc2c(c1)CC(CN1CCN(c3ccc4c(c3)OCCO4)CC1)C2
NE (Rodentia sp. [15]): inactive
NE (Rodentia sp. [16]): inactive
ED50 (Rodentia sp. [17]): 80 mg/kg
ED50 (Rodentia sp. [18]): 66 mg/kg
ED50 (Rodentia sp. [19]): 40 mg/kg
ED50 (Rodentia sp. [20]): 9 mg/kg

SMILES: OC(c1ccccc1)C1CCN(CCc2ccccc2)CC1 (configuration not stated) [GLEMANSERIN]
Ki [4]: 2.5 nM

SMILES: c1ccc(N2CCN(Cc3c[nH]c4ccccc34)CC2)cc1
IC50 [21]: > 10000 nM

SMILES: Cc1c(-c2ccccc2)[nH]c(=O)n1C1CCN(Cc2cccc(C#N)c2)CC1
half-life [5]: 1.1 h
bioavailability [6]: 69%

SMILES: Cc1c(C2CCN(CCc3ccccc3)CC2)noc1-c1ccc(Cl)cc1
half-life [5]: 2 h
bioavailability [6]: 38%

SMILES: Fc1ccc(OC[C@@H]2CC[C@H]3CN(c4ncc(F)cn4)CCN3C2)cc1
NE (Rodentia sp. [30]): inactive
NE (Rodentia sp. [31]): inactive
NE (Rodentia sp. [32]): inactive
minimal effective dose (Rodentia sp. [22]): 18 mg/kg
ED50 (Rodentia sp. [33]): 13 mg/kg

Further lines, with some results ahead:

Ki [1]: 37 nM
Ki [2]: > 10000 nM
Ki [3]: 1.9 nM
SMILES: O=C1Cc2cc(CCN3CCN(c4nsc5ccccc45)CC3)c(Cl)cc2N1 [ZIPRASIDONE]

Ki [4]: 126 nM
SMILES: OC(c1ccc(F)cc1)C1CCN(CCCCc2ccccc2)CC1 (configuration not stated)

half-life [5]: 1 h
bioavailability [6]: 31%
inhibition at 10 µM [7]: 58%
inhibition [8]: 33%
Ki (D(4) dopamine receptor): 4.3 nM
SMILES: Clc1ccccc1CCN1CCN(c2[nH]nc3c2CCc2ccccc2-3)CC1

Ki [4]: 5.3 nM
SMILES: O=C(c1ccc(F)cc1)C1CCN(CCCCc2ccccc2)CC1

half-life [10]: 6.6 h
SMILES: COc1cccc([C@H](O)C2CCN(CCc3ccc(F)cc3)CC2)c1OC [VOLINANSERIN]

bioavailability [11]: < 3%
Kp [12]: < 0.13
SMILES: COc1cccc([C@H](O)C2CCN(CCc3ccc(F)cc3)CC2)c1O
ED50 (Mus musculus [13]): 0.08 mg/kg
ED50 (Mus musculus [14]): 0.62 mg/kg

Ki (D(4) dopamine receptor): 3.5 nM
SMILES: O=C(c1ccc(F)cc1)C1CCN(CCn2c(=O)[nH]c3ccccc3c2=O)CC1 [KETANSERIN]

Ki (D(4) dopamine receptor): 6.8 nM
SMILES: NS(=O)(=O)c1ccc(N2CCN(CC[C@@H]3OCCc4ccccc43)CC2)cc1 [SONEPIPRAZOLE]
minimal effective dose (Rodentia sp. [22]): 30 mg/kg
NE (Rodentia sp. [23]): inactive
NE (Rodentia sp. [24]): inactive
NE (Rodentia sp. [25]): inactive
NE (Rodentia sp. [26]): inactive
NE (Rodentia sp. [27]): inactive

Ki (D(4) dopamine receptor): 2.9 nM
SMILES: O=S1(=O)c2cccc3cccc(c23)N1CCCN1CCN(c2ccc(F)cc2)CC1 [FANANSERIN]
ED50 (Rattus norvegicus [28]): 0.99 mg/kg
ED50 (Rattus norvegicus [29]): 2.4 mg/kg
